Source: ChEMBL document CHEMBL5303304, “EUbOPEN Chemogenomics Library - IncuCyte” (2023)
Where “and” joins values, the source holds several entries; their conditions need not be identical. Equal entries are not always repeated.

Legend:
Type in all cases: toxicity, cell-based
Fibroblast = assay: Incucyte cell viability with human fibroblast; conditions: 10 µM, compound concentration 10 uM
U2OS = assay: Incucyte cell viability with U2OS; conditions: human, 10 µM, compound concentration 10 uM
HEK-293T = assay: Incucyte cell viability with HEK293T; conditions: human, 10 µM, compound concentration 10 uM
Also: unitless GR value; below 1 slowed growth and below 0 cell loss.

SMILES	Growth Rate (Fibroblast; 0 h, replicate number 1)	Growth Rate (Fibroblast; 6 h, replicate number 1)	Growth Rate (Fibroblast; 6 h, replicate number 2)	Growth Rate (Fibroblast; 12 h, replicate number 1)	Growth Rate (Fibroblast; 12 h, replicate number 2)	Growth Rate (Fibroblast; 24 h, replicate number 2)	Growth Rate (U2OS; 0 h, replicate number 2)	Growth Rate (U2OS; 12 h, replicate number 1)	Growth Rate (U2OS; 12 h, replicate number 2)	Growth Rate (U2OS; 18 h, replicate number 1)	Growth Rate (U2OS; 18 h, replicate number 2)	Growth Rate (HEK-293T; 0 h, replicate number 1)	Growth Rate (HEK-293T; 6 h, replicate number 1)	Growth Rate (HEK-293T; 6 h, replicate number 2)	Growth Rate (HEK-293T; 12 h, replicate number 1)	Growth Rate (HEK-293T; 18 h, replicate number 1)	Growth Rate (HEK-293T; 24 h, replicate number 1)	Growth Rate (HEK-293T; 24 h, replicate number 2)	Growth Rate (Fibroblast; 18 h, replicate number 1)	Growth Rate (HEK-293T; 0 h, replicate number 2)	also measured
CCCOc1cnc(CN/C=C2\C(=O)NC(=O)c3ccc(I)cc32)cc1O	0.29	-0.88	-0.38	-0.79	-0.06	0.16	-1	0.89	0.75	0.45	0.38	0.51	-0.81	-0.9	-0.75	-0.63	-0.58	-0.47	–	–	Growth Rate (Fibroblast; 18 h, replicate number 2): 0.1; Growth Rate (Fibroblast; 24 h, replicate number 1): 0.11; Growth Rate (U2OS; 24 h, replicate number 1): 0.07; Growth Rate (U2OS; 24 h, replicate number 2): 0; Growth Rate (HEK-293T; 12 h, replicate number 2): -0.74; Growth Rate (HEK-293T; 18 h, replicate number 2): -0.6
Clc1ccccc1C(c1ccccc1)(c1ccccc1)n1cccn1	–	0.64	–	–	0.39	0.54	-0.86	0.78	0.9	1	0.94	0.43	0.05	0.9	0.26	0.83	0.89	–	0.46	0.27 and 0.15	Growth Rate (U2OS; 6 h, replicate number 1): 0.24; Growth Rate (U2OS; 6 h, replicate number 2): 0.65; Growth Rate (U2OS; 24 h, replicate number 1): 0.91
Nc1nccc(-c2ccn3c(N)nccc23)n1	0.88	0.9	–	-0.17	–	–	-0.76	0.76	–	0.84	–	-0.56	–	–	–	–	0.97	–	0.49	-0.48	–
CCN1C(=CC(C)=O)Sc2ccc(OC)cc21	0.98	–	0.95	–	–	–	–	–	0.9	–	–	0.95	0.07	0.47	0.47	0.25	0.2	0.46	–	0.69	Growth Rate (Fibroblast; 0 h, replicate number 2): 0.16; Growth Rate (HEK-293T; 12 h, replicate number 2): 0.28; Growth Rate (HEK-293T; 18 h, replicate number 2): 0.43
COC[C@@H](CC(C)C)NC1=N/C(=C\c2ccc3ncsc3c2)C(=O)N1C	–	-0.97	0.03	–	0.07	0.51	–	0.73	0.64	0.43	0.37	0.16	0.37	0.4	-0.18	0.35	0.68	0.6	0.63	0.12	Growth Rate (Fibroblast; 18 h, replicate number 2): 0.3; Growth Rate (U2OS; 0 h, replicate number 1): 0.04; Growth Rate (U2OS; 24 h, replicate number 1): 0.37; Growth Rate (U2OS; 24 h, replicate number 2): 0.28; Growth Rate (HEK-293T; 12 h, replicate number 2): 0.3; Growth Rate (HEK-293T; 18 h, replicate number 2): 0.69
Cc1ccccc1C1C(=O)N(C)c2cnc(Nc3ccc(S(N)(=O)=O)cc3)nc2N1C (stereo unspecified)	-0.58	-1	–	–	–	–	-0.83	–	–	–	–	-0.37	–	–	–	–	–	–	–	-0.88	Growth Rate (Fibroblast; 0 h, replicate number 2): -0.9; Growth Rate (U2OS; 0 h, replicate number 1): -0.73
CN(C)Cc1cccc(NC(=C2C(=O)Nc3cc(C(N)=O)ccc32)c2ccccc2)c1	-0.09	–	0.24	-0.97	0.87	–	-0.78	–	–	–	–	0.9	–	–	–	–	–	–	-0.83	-0.24	Growth Rate (Fibroblast; 24 h, replicate number 1): 0.13
CC1=NC(C=C2C(=O)Nc3ccc(F)cc32)=C(C)C1C(=O)NCC(O)CN1CCOCC1 (stereo unspecified)	0.4	-0.99	–	–	–	–	-0.99	–	–	–	–	0.76	–	–	–	–	–	0.99	–	-0.67	–
O=C(/N=c1\sccn1Cc1ccccc1)c1c[nH]c2ncccc12	–	-1	–	–	–	–	-0.96	–	–	–	–	-0.78	–	–	–	–	–	–	–	-0.86	–
